Source: PMC4147775, “Stimulation of Hepatic Apolipoprotein A-I Production by Novel Thieno-Triazolodiazepines: Roles of the Classical Benzodiazepine Receptor, PAF Receptor, and Bromodomain Binding” (Lipid insights, 2013)
Read-outs that look alike come from different tables or passages of the source.

Key:
[1] = system: apoA-I production by Hep-G2 cells; assay: apoA-I production by HepG2 cells (ELISA); format: cell-based, human; settings: result in words (Figure 5)
Protocol: On the day of the experiment, supernatant medium was discarded and replaced by a solution of test compounds in HCM™ medium, which was prepared from DMSO stock solutions immediately before use. Stock solution concentrations assured that DMSO never exceeded 0.1% in the assay, as DMSO alone exerts significant effects on hepatocyte gene expression. Each concentration was run in triplicate whereas multiple wells were prepared for vehicle (DMSO) controls. The cells were cultured in the presence of the studied compounds and DMSO control for 72 hours at 37°C in 5% CO2 in air. The supernatants were replaced by a fresh dilution of test compounds after 24 hours and 48 hours, respectively. […]
After removal of the supernatants after 72 hours, all wells were washed 3 times with 200 μL isotonic 0.29 MD-mannitol and 25 μL d H2O was added to each well. The protein content of each well was determined using the Pierce® BCA Protein Assay Kit according to kit instructions and calculated as micrograms cellular protein per well.
For apoA-I detection, the human apoA1 ELISA kit from Mabtech Nacka, Sweden (Catalog no. 3710-1H-20) was used. […] Finally, the chromogenic substrate was added, and absorbance was measured at 450 nm.
The apoA-I content of each sample was calculated using the standard curve generated with each plate and was expressed as ng apoA-I per mg of cellular protein.

[2] = biological target: T1, human recombinant PAF receptor (Homo sapiens, UniProt P25105); assay: Binding to PAF receptor, 3H-C16-PAF, CHO cells; settings: for competition with labeled PAF: cells expressing the human PAF receptor, result in words (Figure 3B)
T1 construct: expressed in transfected cells; host or cells: CHO cells

[3] = system: fibrosarcoma cells (HT1080); assay: Cytotoxicity: mitochondrial membrane potential (TMRM); settings: for IC50: read-out: mitochondrial membrane potential in fibrosarcoma cells, IC50; for mitochondrial membrane potential in fibrosarcoma cells: 100 μM, result in words
[4] = Cytotoxicity: ATP level (Cell Titer Glo); format: cell-based, human; settings: 72 hours; for ATP level in human hepatocytes: result in words
[5] = system: fibrosarcoma cells (HT1080); settings: read-out: mitochondrial membrane potential, IC50, cited from earlier work
central BZD receptor = assay: Binding to central BZD receptor, 3H-flunitrazepam, rat cerebral cortex membranes; settings: for competition with labeled flunitrazepam: rat brain membranes, result in words (Figure 3A)
[6] = Metabolic stability in human hepatocytes; format: in vitro ADME; settings: cryopreserved human hepatocytes, read-out: stability in human hepatocytes (% remaining after 120 min)
[7] = system: apoA-I production by primary human hepatocytes; assay: apoA-I production by primary human hepatocytes (ELISA); format: cell-based; settings: cultured human hepatocytes, 72 hours, maximal stimulation
BRDT(2) = biological target: T2, BRDT(2) (Homo sapiens, UniProt Q58F21); assay: Protein stability shift assay (thermal shift), BRDT(2); format: binding; settings: 10 μM ligand
T2 construct: the second as compared with the first bromodomain of these BRDs

BRD2(2) = biological target: T3, BRD2(2) (Homo sapiens, UniProt P25440); assay: Protein stability shift assay (thermal shift), BRD2(2); format: binding; settings: 10 μM ligand
T3 construct: the second as compared with the first bromodomain of these BRDs

BRD2(1) = biological target: T4, BRD2(1) (Homo sapiens, UniProt P25440); assay: Protein stability shift assay (thermal shift), BRD2(1); format: binding; settings: 10 μM ligand
T4 construct: the second as compared with the first bromodomain of these BRDs

BRD3(2) [8] = biological target: T5, BRD3(2) (Homo sapiens, UniProt Q15059); assay: Protein stability shift assay (thermal shift), BRD3(2); format: binding; design: the second as compared with the first bromodomain of these BRDs; settings: 10 μM ligand
CREBBP = biological target: T6, CREBBP (Homo sapiens, UniProt Q92793); assay: Protein stability shift assay (thermal shift), CREBBP; format: binding; settings: 10 μM ligand
T6 construct: Thermal shift (Δtm^obs) of human bromodomains in the presence of 10 μM compound

BRD4(2) = biological target: T7, BRD4(2) (Homo sapiens, UniProt O60885); assay: Protein stability shift assay (thermal shift), BRD4(2); format: binding; settings: 10 μM ligand
T7 construct: the second as compared with the first bromodomain of these BRDs

BRD3(1) = biological target: T8, BRD3(1) (Homo sapiens, UniProt Q15059); assay: Protein stability shift assay (thermal shift), BRD3(1); format: binding; settings: 10 μM ligand
T8 construct: the second as compared with the first bromodomain of these BRDs

BRDT(1) = biological target: T9, BRDT(1) (Homo sapiens, UniProt Q58F21); assay: Protein stability shift assay (thermal shift), BRDT(1); format: binding; settings: 10 μM ligand
T9 construct: the second as compared with the first bromodomain of these BRDs

PB1(5) = biological target: T10, PB1(5) (Homo sapiens, UniProt Q86U86); assay: Protein stability shift assay (thermal shift), PB1(5); format: binding; settings: 10 μM ligand
T10 construct: Thermal shift (Δtm^obs) of human bromodomains in the presence of 10 μM compound

PCAF = biological target: T11, PCAF (Homo sapiens, UniProt Q92831); assay: Protein stability shift assay (thermal shift), PCAF; format: binding; settings: 10 μM ligand
T11 construct: Thermal shift (Δtm^obs) of human bromodomains in the presence of 10 μM compound
T11 sequence (Q92831 723-827 limits assumed): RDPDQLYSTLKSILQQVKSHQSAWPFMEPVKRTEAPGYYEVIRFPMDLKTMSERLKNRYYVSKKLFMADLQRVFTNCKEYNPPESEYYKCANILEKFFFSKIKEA

apoA-I = system: apoA-I; design: method as in PMID 21449977; settings: mice transgenic for human apoA-I; cited from earlier work
BRD4(1) [9] = biological target: T12, BRD4(1) (Homo sapiens, UniProt O60885); assay: Protein stability shift assay (thermal shift), BRD4(1); format: binding; design: the second as compared with the first bromodomain of these BRDs; settings: 10 μM ligand
BAZ2B = biological target: T13, BAZ2B (Homo sapiens, UniProt Q9UIF8); assay: Protein stability shift assay (thermal shift), BAZ2B; format: binding; settings: 10 μM ligand
T13 construct: Thermal shift (Δtm^obs) of human bromodomains in the presence of 10 μM compound
T13 sequence (Q9UIF8 2060-2164 limits assumed): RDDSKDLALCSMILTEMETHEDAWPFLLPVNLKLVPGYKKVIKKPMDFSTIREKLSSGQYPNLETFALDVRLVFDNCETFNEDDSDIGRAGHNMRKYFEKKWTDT

BRD3(2) [10] = biological target: T5, BRD3(2); assay: Isothermal titration calorimetry, BRD3(2); format: binding; design: 2 μM for the first bromodomain in BRD4 and 0.5 μM for the second bromodomain in BRD3; settings: ITC
recombinant BRD3 domains = assay: Bromodomain inhibition assay (Alphascreen), acetylated histone H4 peptide displacement, BRD3; format: biochemical; settings: domains 1 and 2, result in words (Figure 4)
recombinant BRD4 domains = assay: Bromodomain inhibition assay (Alphascreen), acetylated histone H4 peptide displacement, BRD4; format: biochemical; settings: domains 1 and 2, result in words (Figure 4)
BRD4(1) [11] = biological target: T12, BRD4(1); assay: Isothermal titration calorimetry, BRD4(1); format: binding; design: 2 μM for the first bromodomain in BRD4 and 0.5 μM for the second bromodomain in BRD3; settings: ITC

T1 sequence (P25105 whole entry): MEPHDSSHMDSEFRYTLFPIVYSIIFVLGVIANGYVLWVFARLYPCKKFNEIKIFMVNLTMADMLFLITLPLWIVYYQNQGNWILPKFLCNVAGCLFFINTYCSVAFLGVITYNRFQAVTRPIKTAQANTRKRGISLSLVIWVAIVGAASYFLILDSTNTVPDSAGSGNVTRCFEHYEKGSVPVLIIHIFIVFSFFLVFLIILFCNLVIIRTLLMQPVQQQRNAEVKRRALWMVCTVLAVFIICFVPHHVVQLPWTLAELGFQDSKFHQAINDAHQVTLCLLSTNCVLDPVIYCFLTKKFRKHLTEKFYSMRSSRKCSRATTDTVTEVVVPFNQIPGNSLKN
T3 sequence (P25440 344-453 limits assumed): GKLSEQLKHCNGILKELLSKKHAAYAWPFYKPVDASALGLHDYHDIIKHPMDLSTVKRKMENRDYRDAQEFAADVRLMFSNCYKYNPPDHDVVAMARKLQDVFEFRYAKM
T10 sequence (Q86U86 653-763 limits assumed): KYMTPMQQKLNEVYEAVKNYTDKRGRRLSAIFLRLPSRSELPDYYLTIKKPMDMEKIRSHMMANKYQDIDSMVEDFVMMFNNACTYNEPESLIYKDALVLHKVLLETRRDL
T6 sequence (Q92793 1085-1192 limits assumed): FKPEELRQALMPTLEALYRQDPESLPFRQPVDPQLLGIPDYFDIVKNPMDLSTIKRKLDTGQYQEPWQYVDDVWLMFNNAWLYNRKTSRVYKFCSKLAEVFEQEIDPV
T5 sequence (Q15059 306-415 limits assumed): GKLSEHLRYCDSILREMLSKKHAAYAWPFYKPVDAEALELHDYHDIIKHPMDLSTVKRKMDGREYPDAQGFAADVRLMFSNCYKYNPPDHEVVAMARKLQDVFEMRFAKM
T4 sequence (P25440 74-180 limits assumed): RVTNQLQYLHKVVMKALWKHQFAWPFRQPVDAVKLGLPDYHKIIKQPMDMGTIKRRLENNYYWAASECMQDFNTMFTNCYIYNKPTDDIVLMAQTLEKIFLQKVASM
T8 sequence (Q15059 34-140 limits assumed): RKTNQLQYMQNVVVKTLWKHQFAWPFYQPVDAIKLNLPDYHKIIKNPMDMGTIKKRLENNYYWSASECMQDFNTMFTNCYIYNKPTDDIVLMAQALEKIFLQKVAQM

Cc1sc2c(c1C)C(c1ccc(Cl)cc1)=NC(CC(=O)OC(C)(C)C)c1nnc(C)n1-2 (single isomer, unassigned; (+)) [(+)-JQ1, reference compound]
effect on apoA-I production [1]: very effective stimulator of apoA-I production

CCCCCCCCCCCCCCCCOC[C@H](COP(=O)([O-])OCC[N+](C)(C)C)OC(C)=O [C16-PAF, reference compound]
IC50 ([2]; 3H-C16-PAF, CHO cells expressing human recombinant PAF receptor, reference): 0.7 nM

COCc1c(C(C)C)nc(C(C)C)c(/C=C/[C@@H](O)C[C@@H](O)CC(=O)O)c1-c1ccc(F)cc1 [Cerivastatin]
IC50 ([3]; Homo sapiens, HT-1080, 72 h): 2600 nM
ATP level in human hepatocytes, reduction ([4]; 20 μM): 59 ± 10% reduction at 20 μM (n = 3)
IC50 ([5]; ref CEREP Cytotoxicity Application Note): 660 nM
IC50 ([5]; ref CEREP study report 14547): 1100 nM
IC50 ([5]; ref O’Brien et al. Arch toxicol. 2006;80:580–604): 3000 nM

CN1C(=O)CN=C(c2ccccc2)c2cc(Cl)ccc21 [Diazepam, reference compound]
IC50 (central BZD receptor; 3H-flunitrazepam, rat cerebral cortex membranes, reference): 20 nM

O=C(O)Cc1ccccc1Nc1c(Cl)cccc1Cl [Diclofenac, reference compound]
remaining at 2 h, 10 μM ([6]; donor 1, 10 μM): 70 ± 10%

N#CC(C#N)=NNc1ccc(OC(F)(F)F)cc1 [FCCP, reference compound]
IC50 ([3]; 72 hours): 17000 nM
ATP level in human hepatocytes, reduction ([4]; 100 μM): 96 ± 0.7% reduction at 100 μM (n = 2)

Cc1nnc2n1-c1sccc1C(c1ccccc1)=NC2 [MDCO-3760]
competition with labeled flunitrazepam (central BZD receptor): able to compete
stimulation of apoA-I production [7]: up to 3 fold
Thermal shift (ΔTm obs) BRDT(2) (BRDT(2)): 3.2
Thermal shift (ΔTm obs) BRD2(2) (BRD2(2)): 2.6
remaining at 2 h, 10 μM ([6]; donor 1, 10 μM): 105%
Thermal shift (ΔTm obs) BRD2(1) (BRD2(1)): 0.1
Thermal shift (ΔTm obs) BRD3(2) (BRD3(2) [8]): 3.0
Thermal shift (ΔTm obs) CREBBP (CREBBP): −0.1
Thermal shift (ΔTm obs) BRD4(2) (BRD4(2)): 2.8
Thermal shift (ΔTm obs) BRD3(1) (BRD3(1)): 1.9
competition with labeled PAF [2]: able to compete
Thermal shift (ΔTm obs) BRDT(1) (BRDT(1)): 0.4
mitochondrial membrane potential in fibrosarcoma cells ([3]; 72 hours): no effect at 100 μM (n = 5)
Thermal shift (ΔTm obs) PB1(5) (PB1(5)): −4.7
Thermal shift (ΔTm obs) PCAF (PCAF): 2.2
plasma levels of apoA-I (apoA-I): increased
Thermal shift (ΔTm obs) BRD4(1) (BRD4(1) [9]): 2.7
ATP level in human hepatocytes ([4]; 100 μM): no effect at 100 μM (n = 3)
Thermal shift (ΔTm obs) BAZ2B (BAZ2B): 0.1

Cc1nnc2n1-c1sccc1C(c1ccccc1)=NC2(C)C [MDCO-3770]
competition with labeled flunitrazepam (central BZD receptor): did not compete
stimulation of apoA-I production [7]: up to 3 fold
Thermal shift (ΔTm obs) BRDT(2) (BRDT(2)): 0.3
Thermal shift (ΔTm obs) BRD2(2) (BRD2(2)): 0.0
TΔS (BRD3(2) [10]; BRD3(2), 15°C): 0.04 kcal/mol
ΔH obs (BRD3(2) [10]; BRD3(2), 15°C): -4.62 ± 0.042 kcal/mol
N (BRD3(2) [10]; BRD3(2), 15°C, single binding site model): 1.02 ± 0.006
Kd (BRD3(2) [10]; KD, BRD3(2), 15°C, reverse titration): 513 ± 40.5 nM
Kd (BRD3(2) [10]; binding affinity, second bromodomain in BRD3, rounded in text): 500 nM
remaining at 2 h, 10 μM ([6]; donor 2, 10 μM): 97%
Thermal shift (ΔTm obs) BRD2(1) (BRD2(1)): −1.1
Thermal shift (ΔTm obs) BRD3(2) (BRD3(2) [8]): 5.3
Thermal shift (ΔTm obs) CREBBP (CREBBP): −0.6
Thermal shift (ΔTm obs) BRD4(2) (BRD4(2)): 2.5
Thermal shift (ΔTm obs) BRD3(1) (BRD3(1)): −0.2
competition with labeled PAF [2]: only weakly displaced
Thermal shift (ΔTm obs) BRDT(1) (BRDT(1)): −0.9
inhibition of binding of acetylated histone H4 peptide to BRD3 domains (recombinant BRD3 domains): clearly more potent than the other 2 thieno-TZDs
mitochondrial membrane potential in fibrosarcoma cells ([3]; 72 hours): no effect at 100 μM (n = 5)
Thermal shift (ΔTm obs) PB1(5) (PB1(5)): −0.5
inhibition of binding of acetylated histone H4 peptide to BRD4 domains (recombinant BRD4 domains): clearly more potent than the other 2 thieno-TZDs
Thermal shift (ΔTm obs) PCAF (PCAF): 1.5
TΔS (BRD4(1) [11]; BRD4(1), 15°C): 0.01 kcal/mol
ΔG (BRD4(1) [11]; BRD4(1), 15°C): -6.71 kcal/mol
ΔH obs (BRD4(1) [11]; BRD4(1), 15°C): -6.71 ± 0.103 kcal/mol
N (BRD4(1) [11]; BRD4(1), 15°C, single binding site model): 0.99 ± 0.011
Kd (BRD4(1) [11]; KD, BRD4(1), 15°C, reverse titration): 2060 ± 141 nM
Kd (BRD4(1) [11]; binding affinity, first bromodomain in BRD4, rounded in text): 2000 nM
Thermal shift (ΔTm obs) BRD4(1) (BRD4(1) [9]): 3.3
ATP level in human hepatocytes ([4]; 100 μM): no effect at 100 μM (n = 3)
Thermal shift (ΔTm obs) BAZ2B (BAZ2B): −0.4

Cc1nnc2n1-c1sccc1C(c1ccc3c(c1)OCO3)=NC2 [MDCO-3783]
competition with labeled flunitrazepam (central BZD receptor): did not compete
stimulation of apoA-I production [7]: up to 3 fold
Thermal shift (ΔTm obs) BRDT(2) (BRDT(2)): 2.4
Thermal shift (ΔTm obs) BRD2(2) (BRD2(2)): 1.8
remaining at 2 h, 10 μM ([6]; donor 1, 10 μM): 97%
Thermal shift (ΔTm obs) BRD2(1) (BRD2(1)): 0.3
Thermal shift (ΔTm obs) BRD3(2) (BRD3(2) [8]): 2.1
Thermal shift (ΔTm obs) CREBBP (CREBBP): −0.1
Thermal shift (ΔTm obs) BRD4(2) (BRD4(2)): 1.9
Thermal shift (ΔTm obs) BRD3(1) (BRD3(1)): 1.8
competition with labeled PAF [2]: only weakly displaced
Thermal shift (ΔTm obs) BRDT(1) (BRDT(1)): 0.3
mitochondrial membrane potential in fibrosarcoma cells ([3]; 72 hours): no effect at 100 μM (n = 5)
Thermal shift (ΔTm obs) PB1(5) (PB1(5)): 0.0
Thermal shift (ΔTm obs) PCAF (PCAF): 1.9
Thermal shift (ΔTm obs) BRD4(1) (BRD4(1) [9]): 2.4
ATP level in human hepatocytes ([4]; 100 μM): no effect at 100 μM (n = 3)
Thermal shift (ΔTm obs) BAZ2B (BAZ2B): 0.0
effect on apoA-I production [1]: potency and efficacy comparable to that of (−)-JQ1

C[C@]12CC[C@H]3[C@@H](CCC4=CC(=O)CC[C@@]43C)[C@@H]1CC[C@@H]2O [Testosterone, reference compound]
remaining at 2 h, 10 μM ([6]; donor 1, 10 μM): 64%
